Data reported in article PMC9315535 (Microorganisms, 2022).

Assays:
CHIKV nsP2pro [1] = biological target: T1, CHIKV nsP2pro (Chikungunya virus, UniProt Q8JUX6); experiment: biochemical; type: binding
ZIKV NS2B/NS3pro [2] = biological target: T2, ZIKV NS2B/NS3pro (Zika virus, UniProt A0A140DLX4); experiment: biochemical; type: binding
ZIKV NS2B/NS3pro [3] = biological target: T2, ZIKV NS2B/NS3pro; experiment: biochemical
YFV NS2B/NS3pro [4] = biological target: T3, YFV NS2B/NS3pro (Yellow fever virus, UniProt Q1X881); type: binding
in vitro = conditions: Cercopithecus aethiops (African green monkey)
[5] = test system: serine protease of the human cytomegalovirus (HCMV); set-up: method as in PMID 8639546; conditions: cited from earlier work
CHIKV nsP2pro [6] = biological target: T1, CHIKV nsP2pro; experiment: Thermal unfolding followed by Trp fluorescence, CHIKV protease; type: binding
[7] = test system: yellow fever virus (vaccinal strain); type: cell-based
YFV NS2B/NS3pro [8] = biological target: T3, YFV NS2B/NS3pro; experiment: biochemical
[9] = test system: Chikungunya virus (strain ECSA); experiment: Virucidal / time-of-drug addition plaque-forming assay, CHIKV; type: cell-based; conditions: 50 µM, virus and compound incubated 1 h at RT, Vero cells
CHIKV nsP2pro [10] = biological target: T1, CHIKV nsP2pro; experiment: biochemical
YFV NS2B/NS3pro [11] = biological target: T3, YFV NS2B/NS3pro; experiment: biochemical; type: binding
[12] = ref https://www.drugbank.ca/drugs/DB00140; cited from earlier work
[13] = test system: Zika virus (strain ZIKVBR); experiment: Virucidal / time-of-drug addition plaque-forming assay, ZIKV; type: cell-based; conditions: 50 µM, Vero cells
ZIKV NS2B/NS3pro [14] = biological target: T2, ZIKV NS2B/NS3pro; experiment: Thermal unfolding followed by Trp fluorescence, ZIKV protease; type: binding; conditions: protease alone 43 °C
ZIKV NS2B/NS3 protease = conditions: Targeted virus ZIKV; cited from earlier work
CHIKV nsP2 protease = test system: CHIKV nsP2 protease; set-up: method as in PMID 33661906; conditions: Targeted virus CHIKV; cited from earlier work
YFV NS2B/NS3 protease = conditions: cited from earlier work
[15] = read-out: Inhibition of protease activity, primary test

In the case of Cc1cc2nc3c(=O)[nH]c(=O)nc-3n(C[C@H](O)[C@H](O)[C@H](O)CO)c2cc1C [riboflavin], the “Excitation Shift” value (CHIKV nsP2pro [1]) is reported as “blue edge excitation shift”, the Kd (CHIKV nsP2pro [1]) is reported as 2.8 ± 0.7 µM and the “Excitation Shift” value (ZIKV NS2B/NS3pro [2]) is reported as “blue edge excitation shift”. The Kd (ZIKV NS2B/NS3pro [2]; KD ± STD) was 25.1 µM, the “Inhibition Mode” value (ZIKV NS2B/NS3pro [3]) was “competitive” and the IC100 (ZIKV NS2B/NS3pro [3]; 1 h, read-out: Final concentration to inhibit 100% of protease) was 220 µM. For the same compound, the IC50 (ZIKV NS2B/NS3pro [3]; IC50 ± STD) was 79.4 ± 5 µM, the IC50 (ZIKV NS2B/NS3pro [3]; pIC50) was 79.4 µM and the inhibition at 20 µM (ZIKV NS2B/NS3pro [3]; [15]) was 10%. For the same compound, the “Effect on cell viability” value (Vero cells) was “does not affect cell viability”, the “Tm of protease-riboflavin complex” value (YFV NS2B/NS3pro [4]) was 51 °C and the ΔTm (YFV NS2B/NS3pro [4]) was 4 °C. The CC50 (in vitro) was 72.3 µM, the IC50 [5] was 0.3 µM and the Inhibition Mode [5] was “competitive”. The “Tm of protease-riboflavin complex” value (CHIKV nsP2pro [6]; protease alone 47 °C) was 52 °C, the ΔTm (CHIKV nsP2pro [6]; protein 10 µM, riboflavin 75 µM) was 5 °C and the “Prevention of virus entry (virucidal assay)” value [7] was “not observed”. For the same compound, the “Final concentration to inhibit 100% of protease” value (YFV NS2B/NS3pro [8]) was 200 µM, the IC50 (YFV NS2B/NS3pro [8]) was 45.7 ± 2.9 µM and the “Inhibition Mode” value (YFV NS2B/NS3pro [8]) was “competitive”. The inhibition at 20 µM (YFV NS2B/NS3pro [8]; [15]) was 30%, the “Decrease of CHIKV replication, virucidal assay” value [9] was 44.35% and the IC50 (CHIKV nsP2pro [10]) was 0.093 ± 0.0057 µM. The “Inhibition Mode” value (CHIKV nsP2pro [10]) was “competitive”, the “LE (ligand efficiency)” value (CHIKV nsP2pro [10]) was 0.36 and the “Required concentration to inhibit protease (100%)” value (CHIKV nsP2pro [10]) was 5 µM. The inhibition at 1 µM (CHIKV nsP2pro [10]; [15]) was ~85%, the inhibition at 20 µM (CHIKV nsP2pro [10]; [15]) was 100% and the “Excitation Shift” value (YFV NS2B/NS3pro [11]) was “blue edge excitation shift”. For the same compound, the Kd (YFV NS2B/NS3pro [11]) was 18.2 ± 3.9 µM, the LogP [12] was −1.5 and the “Prevention of virus entry (virucidal assay)” value [13] was “not observed”. The “Tm of protease-riboflavin complex” value (ZIKV NS2B/NS3pro [14]) was 51 °C.

For COc1ccc2c(O[C@@H]3C[C@H]4C(=O)N[C@]5(C(=O)NS(=O)(=O)C6CC6)C[C@H]5/C=C\CCCCN(C)C(=O)[C@@H]4C3)cc(-c3nc(C(C)C)cs3)nc2c1C [Simeprevir], the IC50 (ZIKV NS2B/NS3 protease) is listed as 2.6 µM.

For COc1ccc([C@@H]2CC(=O)c3c(O)cc(O)cc3O2)cc1O [Hesperetin], the IC50 (ZIKV NS2B/NS3 protease) is given as 12.6 µM, the IC50 (CHIKV nsP2 protease) is given as 2.5 µM and the IC50 (YFV NS2B/NS3 protease) is given as 2 µM.
